Data on eleven molecules can be found in ChEMBL document CHEMBL1201862, “PubChem BioAssay data set” (2004).

Test systems include 786-0; A498; COLO 205; DU-145; HL-60; HT-29; K562; LOX IMVI; MCF7; MDA-MB-435; MDA-N; NCI-H460; PC-3; RPMI-8226; SF-295; SF-539; SNB-19; UACC-257; UACC-62; IGROV-1.
Holding throughout (experiment): growth of human tumour cells (NCI), 48 h

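Five compound concentrations were applied to cells in 96-well plates for 48 hours; endpoints were derived by simple linear interpolation of the resulting dose-response curve. At the GI50, growth is halved.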 Activity calls are given as the source filed them. Rule as the data show it: active = GI50 up to about 1.1 µM and inactive = higher.

Turning to `COC(=O)C(=O)C(C(=O)C(=O)Nc1ccccc1C(N)=O)c1nc2ccc(Cl)cc2nc1O` (stereo unspecified), the GI50 in the assay with 786-0, in the assay on A498, in the assay with COLO 205, in the assay with DU-145, with HL-60 and in the assay on HT-29 was > 100 µM (inactive) throughout. Besides, the GI50 in the assay with K562, in the assay on LOX IMVI, in the assay with MCF7, in the assay with MDA-MB-435, in the assay on MDA-N and in the assay on NCI-H460 was > 100 µM (inactive) throughout. Moreover, the GI50 in the assay on PC-3, in the assay with RPMI-8226, in the assay with SF-295, in the assay with SF-539, in the assay on SNB-19 and with UACC-257 was > 100 µM (inactive) throughout. For the same molecule, the GI50 in the assay on UACC-62 is > 100 µM (inactive).

`O=c1[nH]/c(=C/c2ccc(OCc3ccccc3)cn2)c(=O)[nH]/c1=C/c1ccccc1`: the GI50 with 786-0 was 0.128 µM (active); with A498, 0.743 µM (active); in the assay on COLO 205 it was 1.06 µM (active); with DU-145, 0.128 µM (active); with HL-60 it was 0.091 µM (active); in the assay on HT-29 it was 0.12 µM (active). The GI50 with IGROV-1 was 0.207 µM (active); in the assay with K562 it was 0.141 µM (active); in the assay with LOX IMVI, 0.207 µM (active); with MCF7, 0.425 µM (active); in the assay on MDA-MB-435 it was 0.0434 µM (active); in the assay on MDA-N, 0.0402 µM (active). For the same molecule, the GI50 in the assay on NCI-H460 was 0.132 µM (active); in the assay on PC-3, 0.141 µM (active); in the assay with RPMI-8226 it was 0.123 µM (active); in the assay with SF-295 it was 0.107 µM (active); in the assay on SF-539 it was 0.12 µM (active); in the assay with SNB-19, 0.157 µM (active). For the same molecule, the GI50 in the assay with UACC-62 was 0.191 µM (active).

Regarding `OC1C#CCSCC#C/C=C\1` (stereo unspecified), the GI50 is 3.58 µM (inactive) with 786-0; 76.6 µM (inactive) with A498; 15.2 µM (inactive) with COLO 205; > 100 µM (inactive) in the assay with DU-145; 23.6 µM (inactive) in the assay on HL-60; 65.9 µM (inactive) in the assay with HT-29. Moreover, the GI50 was > 100 µM (inactive) in the assay on IGROV-1; 17.9 µM (inactive) in the assay on K562; 45.2 µM (inactive) with LOX IMVI; 53.3 µM (inactive) in the assay on MCF7; 56 µM (inactive) in the assay with MDA-MB-435; 81.3 µM (inactive) in the assay on MDA-N. For the same molecule, the GI50 in the assay on NCI-H460 is 13.7 µM (inactive); in the assay with PC-3, > 100 µM (inactive); in the assay on SF-295, > 100 µM (inactive); in the assay with SF-539, > 100 µM (inactive); in the assay with SNB-19, > 100 µM (inactive); in the assay with UACC-257, 30.9 µM (inactive). Besides, in the assay on UACC-62, the GI50 was > 100 µM (inactive).

Turning to `CC(C)/C(Cl)=N\OC(=O)NNc1ccccc1`, the GI50 with 786-0 was 29 µM (inactive); in the assay on A498, 75.2 µM (inactive); in the assay with COLO 205, 0.119 µM (active); in the assay with DU-145, > 100 µM (inactive); in the assay with HT-29, 0.397 µM (active); in the assay with IGROV-1, 1.8 µM (inactive). Further, the GI50 in the assay with K562 was < 0.01 µM (active); in the assay with LOX IMVI, 12.6 µM (inactive); in the assay on MCF7, 8.93 µM (inactive); with MDA-MB-435 it was 1 µM (active); in the assay on MDA-N it was 20 µM (inactive); in the assay on NCI-H460, < 0.01 µM (active). The GI50 in the assay on PC-3 was 0.174 µM (active); with RPMI-8226, < 0.0247 µM (active); with SF-539 it was 29.3 µM (inactive); with SNB-19 it was 73.3 µM (inactive); with UACC-257, 1.3 µM (inactive).

In the case of `CC1CN(CCO)CC(C)O1` (stereo unspecified), the GI50 in the assay on 786-0, in the assay on A498, in the assay with COLO 205, with DU-145, in the assay with HL-60 and in the assay with HT-29 was > 100 µM (inactive) each time. For the same molecule, the GI50 in the assay on IGROV-1, in the assay with K562, in the assay on MCF7, in the assay on MDA-MB-435, in the assay on MDA-N and in the assay on NCI-H460 was > 100 µM (inactive) throughout. Besides, the GI50 in the assay on PC-3, with RPMI-8226, in the assay with SF-295, in the assay on SF-539, with SNB-19 and with UACC-257 was > 100 µM (inactive) throughout. Moreover, in the assay with UACC-62, the GI50 was > 100 µM (inactive).

`COc1cccc2c1OC1(C=C2)Oc2ccccc2C(=O)N1C` (stereo unspecified): the GI50 in the assay on 786-0 is 35.5 µM (inactive); in the assay with A498, 19.6 µM (inactive); with COLO 205, 31.7 µM (inactive); in the assay on DU-145 it was 34 µM (inactive); in the assay on HL-60 it was 19.3 µM (inactive); in the assay on HT-29, 28.5 µM (inactive). In addition, the GI50 with IGROV-1 is 27.7 µM (inactive); in the assay with K562 it was 17.5 µM (inactive); in the assay on LOX IMVI, 2.05 µM (inactive); with MCF7, 37.8 µM (inactive); in the assay on MDA-MB-435, 21.6 µM (inactive); in the assay on MDA-N it was 15 µM (inactive). The GI50 with NCI-H460 is 32.4 µM (inactive); in the assay with PC-3, 27.2 µM (inactive); with RPMI-8226 it was 27.9 µM (inactive); in the assay with SF-295 it was 22.8 µM (inactive); in the assay on SNB-19 it was 56.2 µM (inactive); with UACC-257, 44.8 µM (inactive). Moreover, the GI50 in the assay on UACC-62 is 40.6 µM (inactive).

Take `CC1(C)OCC(C2OC(C)(C)OC2[C@H]2O[C@@]3(O)[C@H]4[C@H](C=CC[C@@H]42)[C@@H](OCc2ccccc2)[C@H](OCc2ccccc2)[C@H]3OCc2ccccc2)O1` (stereo partly specified): the GI50 in the assay with 786-0 is 35 µM (inactive); in the assay on A498, > 100 µM (inactive); with COLO 205 it was > 100 µM (inactive); in the assay with DU-145, 61 µM (inactive); in the assay with HL-60, 14.4 µM (inactive); in the assay with HT-29 it was 17.9 µM (inactive). Also, the GI50 is 71 µM (inactive) in the assay with IGROV-1; 23.9 µM (inactive) in the assay on K562; 22.6 µM (inactive) in the assay on LOX IMVI; 15.2 µM (inactive) in the assay on MCF7; 31.7 µM (inactive) in the assay with MDA-MB-435; 17.9 µM (inactive) in the assay on MDA-N. Besides, the GI50 was 17.9 µM (inactive) in the assay on NCI-H460; 31 µM (inactive) in the assay on PC-3; > 100 µM (inactive) in the assay with SF-295; 27.2 µM (inactive) in the assay on SF-539; 63.7 µM (inactive) in the assay on SNB-19; 18.8 µM (inactive) with UACC-257. Further, the GI50 with UACC-62 was 19.3 µM (inactive).

Take `O=C(Nn1c(-c2ccccc2)nc2ccccc2c1=O)c1ccc(Cl)cc1`: the GI50 is > 100 µM (inactive) in the assay on 786-0; 45.7 µM (inactive) with A498; > 100 µM (inactive) in the assay on DU-145; > 100 µM (inactive) in the assay on HL-60; > 100 µM (inactive) in the assay with HT-29; > 100 µM (inactive) in the assay on IGROV-1. Besides, the GI50 is > 100 µM (inactive) in the assay on K562; > 100 µM (inactive) in the assay with LOX IMVI; > 100 µM (inactive) in the assay with MCF7; 91.2 µM (inactive) with MDA-MB-435; > 100 µM (inactive) with MDA-N; 59.6 µM (inactive) in the assay with NCI-H460. In addition, the GI50 with PC-3 is 66.4 µM (inactive); in the assay on RPMI-8226, 76 µM (inactive); in the assay with SF-295, > 100 µM (inactive); in the assay on SF-539 it was > 100 µM (inactive); in the assay on SNB-19, > 100 µM (inactive); in the assay with UACC-257, > 100 µM (inactive). The GI50 with UACC-62 was 48.3 µM (inactive).

With `CC(C)(Cl)C(Br)CCC(Br)(CCl)C(Cl)CBr` (stereo unspecified), the GI50 in the assay on 786-0, with A498, in the assay with COLO 205, in the assay on DU-145, in the assay with HL-60 and in the assay on HT-29 was > 10 µM (inactive) in each case. Moreover, the GI50 with IGROV-1, with K562, in the assay on LOX IMVI, with MCF7, in the assay on MDA-MB-435 and in the assay on MDA-N was > 10 µM (inactive) each time. Further, the GI50 in the assay on NCI-H460, in the assay with PC-3, in the assay on RPMI-8226, with SF-295, with SF-539 and with SNB-19 was > 10 µM (inactive) in each case. Also, in the assay on UACC-257, the GI50 is > 10 µM (inactive).

Take `O=C(/C=C/C=C/c1ccccc1)c1ccccc1`: the GI50 is 14.3 µM (inactive) with 786-0; 15.1 µM (inactive) in the assay on A498; 17.7 µM (inactive) in the assay with COLO 205; 17.3 µM (inactive) in the assay with DU-145; 3.6 µM (inactive) in the assay on HL-60; 16.2 µM (inactive) in the assay on HT-29. The GI50 in the assay on IGROV-1 is 16.9 µM (inactive); in the assay with K562, 17.1 µM (inactive); in the assay with LOX IMVI, 15.8 µM (inactive); with MCF7, 16.3 µM (inactive); with MDA-MB-435 it was 17.7 µM (inactive); in the assay with MDA-N, 16.2 µM (inactive). Further, the GI50 was 21.3 µM (inactive) with NCI-H460; 19.1 µM (inactive) in the assay on PC-3; 16.1 µM (inactive) with RPMI-8226; 17.3 µM (inactive) with SF-539; 17.9 µM (inactive) with SNB-19; 16.9 µM (inactive) in the assay with UACC-257. The GI50 in the assay with UACC-62 is 17.4 µM (inactive).

As for `COc1c(O)c2c(c3cc(C(=O)N4CCc5c4c(O)c(OC)c4[nH]c(C(=O)N6CC7CC78C6=CC(=O)c6[nH]cc(C)c68)cc54)[nH]c13)CCN2C(N)=O` (stereo unspecified) [CC-1065], the GI50 with 786-0 is 0.000381 µM (active); with A498, 0.0028 µM (active); with COLO 205, 0.00168 µM (active); with DU-145, 0.284 µM (active); in the assay on HL-60, 0.00783 µM (active); in the assay on K562, 0.00309 µM (active). Also, the GI50 with LOX IMVI is 0.000895 µM (active); in the assay on MCF7, 0.0577 µM (active); in the assay with MDA-MB-435, 0.182 µM (active); in the assay on MDA-N, 0.237 µM (active); with NCI-H460 it was 0.000175 µM (active); with PC-3 it was 0.164 µM (active). The GI50 with RPMI-8226 was 0.027 µM (active); in the assay on SF-295, 0.00119 µM (active); with SF-539 it was 0.00366 µM (active); with SNB-19 it was 0.00457 µM (active); in the assay on UACC-257, 0.00352 µM (active); in the assay with UACC-62, 0.00187 µM (active).
